The values that follow come from ChEMBL document CHEMBL5620345, “Metal binding pharmacophore click-derived discovery of new broad-spectrum metallo-β-lactamase inhibitors” (Eur J Med Chem, 2023).

As usually defined, the IC50 is the midpoint of a concentration-inhibition curve.

Assay [1] in a line: Inhibition of recombinant NDM1 (unknown origin) expressed in Escherichia coli (DE3) cells using FC5 as substrate by microplate reader assay.
Assay [2] can be described thus: Inhibition of recombinant his tagged VIM-2 (unknown origin) expressed in Escherichia coli (DE3) cells using FC5 as substrate by microplate reader assay.
Assay [3] in a line: Inhibition of recombinant VIM-1 (unknown origin) expressed in Escherichia coli (DE3) cells using FC5 as substrate by microplate reader assay.
A short description of assay [4]: Inhibition of recombinant his tagged IMP1 (unknown origin) expressed in Escherichia coli (DE3) cells using FC5 as substrate by microplate reader assay.
Assay [5] is described as follows: Inhibition of recombinant VIM-5 (unknown origin) expressed in Escherichia coli (DE3) cells using FC5 as substrate by microplate reader assay.

Take `O=P(O)(O)Cc1cccc(-n2cc(-c3ccc(Cl)cc3)nn2)c1`: the half-inhibitory concentration (IC50) amounted to 40.2 µM in assay [1]; 0.44 µM in assay [2]; 7.12 µM in assay [3]; 8.34 µM in assay [4]; 0.18 µM in assay [5].
With `Nc1ccc(-c2cn(-c3cccc(CP(=O)(O)O)c3)nn2)cc1`, the IC50 in assay [1] is 15.1 µM; in assay [2], 0.17 µM; in assay [3], 5.84 µM; in assay [4] it was 3.24 µM; in assay [5], 0.28 µM.
For `NCc1cn(-c2ccccc2CP(=O)(O)O)nn1`, the IC50 in assay [1], in assay [2], in assay [3], in assay [4] and in assay [5] was greater than 100 µM each time.
Consider `O=P(O)(O)Cc1ccccc1-n1cc(-c2ccccc2)nn1`, for which the IC50 in assay [1] was greater than 100 µM; in assay [2] it was 1.48 µM; in assay [3] it was 10 µM; in assay [4], greater than 100 µM; in assay [5], 1.63 µM.
On to `O=C(O)c1ccccc1-c1cn(-c2cccc(C(=O)O)c2C(=O)O)nn1`, for which the 50% inhibitory concentration (IC50) was greater than 100 µM in assay [1]; greater than 100 µM in assay [2]; 19.5 µM in assay [3]; 13.9 µM in assay [4]; greater than 100 µM in assay [5].
As for `NCc1cccc(-c2cn(-c3cccc(CP(=O)(O)O)c3)nn2)c1`, the concentration for half-maximal inhibition (IC50) in assay [1] came to 42.5 µM; in assay [2] it was 2.56 µM; in assay [3], 7.75 µM; in assay [4], 37.1 µM; in assay [5] it was 0.28 µM.
The matching figures for `O=P(O)(O)Cc1ccc(-n2cc(-c3ccccc3)nn2)cc1`: greater than 100 µM, 1.63 µM, 16 µM, greater than 100 µM and 1.5 µM.
As for `NCCc1ccc(-c2cn(-c3cccc(C(=O)O)c3C(=O)O)nn2)cc1`, the half-inhibitory concentration (IC50) is greater than 100 µM in assay [1]; 67.5 µM in assay [2]; greater than 100 µM in assay [3]; 1.8 µM in assay [4]; greater than 100 µM in assay [5].
As for `Nc1cccc(-c2cn(-c3ccccc3CP(=O)(O)O)nn2)c1`, the IC50 is 94.9 µM in assay [1]; 1.11 µM in assay [2]; 27.2 µM in assay [3]; greater than 100 µM in assay [4]; 0.38 µM in assay [5].
On to `Cc1cccc(-c2cn(-c3cccc(C(=O)O)c3C(=O)O)nn2)c1`, for which the half-maximal inhibitory concentration (IC50) in assay [1] was greater than 100 µM; in assay [2] it was 19.8 µM; in assay [3] it was greater than 100 µM; in assay [4] it was 1.83 µM; in assay [5] it was 28.8 µM.
For the compound `COc1ccc(-c2cn(-c3cccc(CP(=O)(O)O)c3)nn2)cc1`, the half-maximal inhibitory concentration (IC50) in assay [1] turned out to be 7.63 µM; in assay [2] it was 0.17 µM; in assay [3], 4.26 µM; in assay [4], 6.41 µM; in assay [5], 0.043 µM.
The matching figures for `OB(O)c1cccc(-c2cn(-c3ccccc3)nn2)c1`: greater than 100 µM, greater than 100 µM, greater than 100 µM, greater than 100 µM and greater than 100 µM.
As for `Nc1ccccc1-c1cn(-c2ccc(CP(=O)(O)O)cc2)nn1`, the 50% inhibitory concentration (IC50) in assay [1] was 16.6 µM; in assay [2], 2.48 µM; in assay [3], 22.1 µM; in assay [4], greater than 100 µM; in assay [5], 2.28 µM.
Consider `O=C(NCc1cccc(-c2cn(-c3cccc(CP(=O)(O)O)c3)nn2)c1)C(F)(F)F`, for which the IC50 stood at 58.4 µM in assay [1]; 1.98 µM in assay [2]; 12.3 µM in assay [3]; 6.54 µM in assay [4]; 0.11 µM in assay [5].
Turning to `O=P(O)(O)Cc1cccc(-n2cc(-c3ccccc3)nn2)c1`, the IC50 in assay [1] was 27.8 µM; in assay [2], 0.65 µM; in assay [3], 3.65 µM; in assay [4], 5.98 µM; in assay [5] it was 0.05 µM.
The matching figures for `O=P(O)(O)Cc1cccc(-n2cc(-c3cccc(F)c3)nn2)c1`: 34.7 µM, 0.97 µM, 6.67 µM, 6.74 µM and 0.08 µM.
Consider `Nc1ccc(-c2cn(-c3cccc(C(=O)O)c3C(=O)O)nn2)cc1`, for which the IC50 is greater than 100 µM in assay [1]; 10.3 µM in assay [2]; greater than 100 µM in assay [3]; 5.07 µM in assay [4]; greater than 100 µM in assay [5].
In the case of `OCCn1cc(-c2cccc(B(O)O)c2)nn1`, the IC50 in assay [1], in assay [2], in assay [3], in assay [4] and in assay [5] was greater than 100 µM in each case.
As to `O=C(O)c1cccc(-n2cc(-c3ccccc3)nn2)c1`, the IC50 in assay [1], in assay [2], in assay [3], in assay [4] and in assay [5] was greater than 100 µM throughout.
On to `O=P(O)(O)Cc1ccc(-n2cc(-c3cccc(Cl)c3)nn2)cc1`, for which the half-maximal inhibitory concentration (IC50) in assay [1] was greater than 100 µM; in assay [2], 2.44 µM; in assay [3], 8.99 µM; in assay [4], greater than 100 µM; in assay [5] it was 2.03 µM.
Regarding `O=C(O)c1cccc(-n2cc(Cc3ccccc3)nn2)c1C(=O)O`, the IC50 is greater than 100 µM in assay [1]; greater than 100 µM in assay [2]; 71 µM in assay [3]; 9.02 µM in assay [4]; 87.1 µM in assay [5].
Regarding `O=P(O)(O)Cc1ccccc1-n1cc(-c2cccc(Cl)c2)nn1`, the half-maximal inhibitory concentration (IC50) is greater than 100 µM in assay [1]; 0.88 µM in assay [2]; 6.29 µM in assay [3]; 80.4 µM in assay [4]; 1.49 µM in assay [5].
Turning to `O=P(O)(O)Cc1ccc(-n2cc(CNc3ccccc3)nn2)cc1`, the IC50 in assay [1] was greater than 100 µM; in assay [2] it was 13.3 µM; in assay [3], 26.7 µM; in assay [4] it was greater than 100 µM; in assay [5] it was 7.43 µM.
Take `CC(C)(C)OC(=O)NCCn1cc(-c2cccc(B(O)O)c2)nn1`: the IC50 in assay [1] is greater than 100 µM; in assay [2], 52.4 µM; in assay [3], greater than 100 µM; in assay [4] it was greater than 100 µM; in assay [5] it was greater than 100 µM.
As for `O=C(O)c1cccc(-n2cc(-c3ccccc3)nn2)c1[N+](=O)[O-]`, the 50% inhibitory concentration (IC50) in assay [1], in assay [2], in assay [3], in assay [4] and in assay [5] was greater than 100 µM each time.
In the case of `O=P(O)(O)Cc1cccc(-n2cc(-c3cccc(Cl)c3)nn2)c1`, the IC50 is greater than 100 µM in assay [1]; 0.24 µM in assay [2]; 6.85 µM in assay [3]; 7.17 µM in assay [4]; 0.031 µM in assay [5].
As for `O=C(O)c1cccc(-n2cc(-c3ccccc3)nn2)c1O`, the IC50 in assay [1] was greater than 100 µM; in assay [2], greater than 100 µM; in assay [3], 61.9 µM; in assay [4], greater than 100 µM; in assay [5], 59.9 µM.
Consider `CC(C)(C)c1cn(-c2cccc(CP(=O)(O)O)c2)nn1`, for which the half-inhibitory concentration (IC50) in assay [1] worked out at 27.1 µM; in assay [2], 4.44 µM; in assay [3] it was 24.6 µM; in assay [4], 9.5 µM; in assay [5], 0.52 µM.
In the case of `NCCN[C@H]1CC[C@H](CC(=O)N[C@H]2Cc3cccc(C(=O)O)c3OB2O)CC1`, the IC50 came to 0.18 µM in assay [1], 0.004 µM in assay [2], 0.041 µM in assay [3] and 13.2 µM in assay [4].
